Each structure is given as a SMILES string.

The IC50 is the midpoint of a concentration-inhibition curve. A lower IC50 goes with higher potency.

Type in all cases: cell-based
In one experiment the target is T1, human TLR9 (Homo sapiens, UniProt Q9NR96).
T1 construct: host or cells: HEK-Blue cells (HEK293-derived reporter line)
T1 sequence (Q9NR96 26-1032): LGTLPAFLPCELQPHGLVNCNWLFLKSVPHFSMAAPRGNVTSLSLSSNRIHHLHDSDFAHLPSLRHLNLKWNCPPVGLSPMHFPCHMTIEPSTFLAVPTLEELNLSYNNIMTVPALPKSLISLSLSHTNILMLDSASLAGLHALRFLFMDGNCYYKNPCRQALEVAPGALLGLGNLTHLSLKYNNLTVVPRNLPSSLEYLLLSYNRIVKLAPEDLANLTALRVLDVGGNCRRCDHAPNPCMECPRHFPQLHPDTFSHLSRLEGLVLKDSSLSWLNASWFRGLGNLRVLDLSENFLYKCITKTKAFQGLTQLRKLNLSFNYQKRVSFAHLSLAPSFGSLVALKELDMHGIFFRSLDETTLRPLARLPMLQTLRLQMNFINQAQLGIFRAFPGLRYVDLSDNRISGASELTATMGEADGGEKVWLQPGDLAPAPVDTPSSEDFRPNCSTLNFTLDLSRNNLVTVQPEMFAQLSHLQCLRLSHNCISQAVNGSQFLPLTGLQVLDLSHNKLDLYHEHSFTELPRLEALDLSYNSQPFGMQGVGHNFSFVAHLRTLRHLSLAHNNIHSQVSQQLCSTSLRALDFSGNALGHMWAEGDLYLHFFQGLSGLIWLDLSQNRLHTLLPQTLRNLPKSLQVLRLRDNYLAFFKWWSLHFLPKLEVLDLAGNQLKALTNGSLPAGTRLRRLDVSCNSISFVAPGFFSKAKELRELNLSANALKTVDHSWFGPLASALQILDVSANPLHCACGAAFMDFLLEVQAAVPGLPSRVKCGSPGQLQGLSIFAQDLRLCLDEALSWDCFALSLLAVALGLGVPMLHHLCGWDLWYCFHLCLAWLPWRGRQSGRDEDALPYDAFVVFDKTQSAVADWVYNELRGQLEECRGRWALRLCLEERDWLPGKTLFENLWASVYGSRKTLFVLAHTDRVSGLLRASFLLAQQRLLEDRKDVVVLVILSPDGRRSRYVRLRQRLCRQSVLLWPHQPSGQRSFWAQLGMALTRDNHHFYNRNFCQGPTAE
Nature of the experiment: TLR9 inhibition reporter assay (HEK-Blue cells, SEAP reporter, ODN2006 stimulation). The conditions noted are these: HEK-Blue cells overexpressing human TLR9, SEAP reporter, ODN2006 5 nM. The protocol:
(§1) TLR7/8/9 Inhibition Reporter Assays
(§2) HEK-Blue™-cells (Invivogen) overexpressing human TLR7, TLR8 or TLR9 receptors were used for screening inhibitors of these receptors using an inducible SEAP (secreted embryonic alkaline phosphatase) reporter gene under the control of the IFN-β minimal promoter fused to five NF-κB and AP-1-binding sites. Briefly, cells are seeded into Greiner 384 well plates (15000 cells per well for TLR7, 20,000 for TLR8 and 25,000 for TLR9) and then treated with test compounds in DMSO to yield a final dose response concentration range of 0.05 nM-50 μM. After a 30 minute compound pre-treatment at room temperature, the cells are then stimulated with a TLR7 ligand (gardiquimod at a final concentration of 7.5 μM), TLR8 ligand (R848 at a final concentration of 15.9 μM) or TLR9 ligand (ODN2006 at a final concentration of 5 nM) to activate NF-κB and AP-1 which induce the production of SLAP After a 22 hour incubation at […], SLAP levels are determined with the addition of HLK-Blue™ Detection reagent (Invivogen), a cell culture medium that allows for detection of SLAP, according to manufacturer's specifications. The percent inhibition is determined as the […] in the HEK-Blue signal present in wells treated with agonist plus DMSO alone compared to wells treated with a known inhibitor.
A general note: In a reporter assay the amount or activity of a reporter protein is the signal.

In a further experiment the target is T2, human TLR7 (Homo sapiens, UniProt Q9NYK1).
T2 construct: host or cells: HEK-Blue cells (HEK293-derived reporter line)
T2 sequence (Q9NYK1 27-1049): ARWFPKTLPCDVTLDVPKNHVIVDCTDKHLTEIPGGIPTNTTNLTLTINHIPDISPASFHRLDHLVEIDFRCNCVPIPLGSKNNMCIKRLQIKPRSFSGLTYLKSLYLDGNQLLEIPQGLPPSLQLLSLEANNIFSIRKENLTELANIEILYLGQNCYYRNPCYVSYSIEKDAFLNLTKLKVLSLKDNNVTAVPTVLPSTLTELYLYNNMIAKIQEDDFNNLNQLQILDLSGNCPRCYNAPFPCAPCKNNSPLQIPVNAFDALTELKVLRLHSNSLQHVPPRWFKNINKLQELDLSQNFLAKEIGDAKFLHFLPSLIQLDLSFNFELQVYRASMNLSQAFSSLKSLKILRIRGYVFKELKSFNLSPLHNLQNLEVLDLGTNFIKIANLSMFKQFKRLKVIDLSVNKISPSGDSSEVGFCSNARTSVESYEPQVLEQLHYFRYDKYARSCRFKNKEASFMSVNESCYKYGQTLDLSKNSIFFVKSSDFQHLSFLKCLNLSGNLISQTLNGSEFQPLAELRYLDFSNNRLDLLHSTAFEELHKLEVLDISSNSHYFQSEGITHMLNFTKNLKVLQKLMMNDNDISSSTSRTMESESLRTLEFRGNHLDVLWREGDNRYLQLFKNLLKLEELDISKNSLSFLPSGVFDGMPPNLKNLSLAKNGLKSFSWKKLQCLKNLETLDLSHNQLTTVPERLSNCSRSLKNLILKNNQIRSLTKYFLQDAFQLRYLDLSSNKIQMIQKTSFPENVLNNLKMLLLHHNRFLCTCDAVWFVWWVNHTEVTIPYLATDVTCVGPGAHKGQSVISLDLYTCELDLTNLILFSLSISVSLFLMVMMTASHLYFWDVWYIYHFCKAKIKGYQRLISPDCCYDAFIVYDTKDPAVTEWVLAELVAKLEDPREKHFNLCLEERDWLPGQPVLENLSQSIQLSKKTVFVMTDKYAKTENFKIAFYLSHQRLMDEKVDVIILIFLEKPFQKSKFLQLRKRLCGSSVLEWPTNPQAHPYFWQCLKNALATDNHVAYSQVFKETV
Nature of the experiment: TLR7 inhibition reporter assay (HEK-Blue cells, SEAP reporter, gardiquimod stimulation). The conditions noted are these: HEK-Blue cells overexpressing human TLR7, SEAP reporter, gardiquimod 7.5 μM. The protocol: as §1, §2

For the next experiment, the target named is T3, human TLR8 (Homo sapiens, UniProt Q9NR97).
T3 construct: host or cells: HEK-Blue cells (HEK293-derived reporter line)
T3 sequence (Q9NR97 27-1041): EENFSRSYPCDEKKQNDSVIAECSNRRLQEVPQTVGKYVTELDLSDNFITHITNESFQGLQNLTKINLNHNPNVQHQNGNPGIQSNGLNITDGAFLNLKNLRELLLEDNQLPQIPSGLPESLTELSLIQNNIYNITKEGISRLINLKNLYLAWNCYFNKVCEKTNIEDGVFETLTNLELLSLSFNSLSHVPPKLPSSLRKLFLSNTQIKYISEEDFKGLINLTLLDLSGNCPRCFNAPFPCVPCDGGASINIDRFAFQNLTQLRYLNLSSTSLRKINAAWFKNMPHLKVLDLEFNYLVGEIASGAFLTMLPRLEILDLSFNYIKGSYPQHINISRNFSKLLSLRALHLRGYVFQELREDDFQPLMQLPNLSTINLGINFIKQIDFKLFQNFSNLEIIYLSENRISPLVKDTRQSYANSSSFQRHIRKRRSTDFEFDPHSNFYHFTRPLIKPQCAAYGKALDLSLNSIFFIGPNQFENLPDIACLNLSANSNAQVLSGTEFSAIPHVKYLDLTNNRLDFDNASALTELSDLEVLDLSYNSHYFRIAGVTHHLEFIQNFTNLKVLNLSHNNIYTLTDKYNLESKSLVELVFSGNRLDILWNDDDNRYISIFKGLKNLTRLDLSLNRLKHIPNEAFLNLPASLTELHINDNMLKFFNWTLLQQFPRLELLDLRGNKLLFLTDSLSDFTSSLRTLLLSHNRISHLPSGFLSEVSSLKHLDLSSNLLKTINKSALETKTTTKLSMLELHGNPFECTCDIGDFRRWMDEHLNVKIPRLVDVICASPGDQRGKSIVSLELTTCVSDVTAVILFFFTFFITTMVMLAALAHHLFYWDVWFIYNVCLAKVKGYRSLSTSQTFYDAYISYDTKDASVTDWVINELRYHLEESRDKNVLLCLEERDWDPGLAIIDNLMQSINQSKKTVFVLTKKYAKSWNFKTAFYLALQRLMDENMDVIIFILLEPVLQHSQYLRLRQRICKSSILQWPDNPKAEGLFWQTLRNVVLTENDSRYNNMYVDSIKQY
Nature of the experiment: TLR8 inhibition reporter assay (HEK-Blue cells, SEAP reporter, R848 stimulation). The following applies: HEK-Blue cells overexpressing human TLR8, SEAP reporter, R848 15.9 μM. The protocol:
as §1, §2

Take `CC(C)c1c(-c2cc(CO)c3nnnn3c2)[nH]c2ccc(C3CCNCC3)cc12` [Example 71, (6-(3-isopropyl-5-(piperidin-4-yl)-1H-indol-2-yl)tetrazolo[1,5-a]pyridin-8-yl)methanol]: the IC50 on human TLR9 is 1 to 50 µM; at human TLR7, < 0.1 µM; at human TLR8 it was 0.1 to 1 µM.
For `Cc1cc(-c2[nH]c3ccc(C4CCN(C5COC5)CC4)cc3c2C(C)C)cc2ncnn12` [Example 727, 7-(3-isopropyl-5-(1-(oxetan-3-yl)piperidin-4-yl)-1H-indol-2-yl)-5-methyl-[1,2,4]triazolo[1,5-a]pyridine] the same measures were 1 to 50 µM, < 0.1 µM and < 0.1 µM.
The matching figures for `CNC(=O)CN1CCC(c2ccc3[nH]c(-c4cc(C)nc5ccccc45)c(C(C)C)c3c2)CC1` [Example 328, 2-(4-(3-isopropyl-2-(2-methylquinolin-4-yl)-1H-indol-5-yl)piperidin-1-yl)-N-methylacetamide]: 1 to 50 µM, < 0.1 µM and < 0.1 µM.
As for `CC(C)c1c(-c2ccnc3[nH]ncc23)[nH]c2ccc(C3CCN(Cc4cccnc4)CC3)cc12` [Example 907, 4-(3-isopropyl-5-(1-(pyridin-3-ylmethyl)piperidin-4-yl)-1H-indol-2-yl)-1H-pyrazolo[3,4-b]pyridine], the IC50 on human TLR9 was 1 to 50 µM; against human TLR7, < 0.1 µM; on human TLR8, < 0.1 µM.
As to `CCc1c(-c2cccc3[nH]ncc23)[nH]c2ccc(C3CCN(CC(=O)N(C)C)CC3)cc12` [Example 389, 2-(4-(3-ethyl-2-(1H-indazol-4-yl)-1H-indol-5-yl)piperidin-1-yl)-N,N-dimethylacetamide], the IC50 against human TLR9, at human TLR7 and against human TLR8 was 1 to 50 µM throughout.
`COc1cc(-c2[nH]c3ccc(C4CCN(CC(=O)N(C)C)CC4)cc3c2C(C)C)c2ccccc2n1` [Example 340, 2-(4-(3-isopropyl-2-(2-5 methoxyquinolin-4-yl)-1H-indol-5-yl)piperidin-1-yl)-N,N-dimethylacetamide]: the IC50 is 1 to 50 µM at human TLR9, < 0.1 µM at human TLR7 and 0.1 to 1 µM on human TLR8.
The matching figures for `CC(C)c1c(-c2ccn3cnnc3c2)[nH]c2ccc(C3CCNCC3)cc12` [Example 83, 7-(3-isopropyl-5-(piperidin-4-yl)-1H-indol-2-yl)-[1,2,4]triazolo[4,3-a]pyridine]: 0.1 to 1 µM, < 0.1 µM and 0.1 to 1 µM.
For the compound `Cc1cc(-c2[nH]c3ccc(C4CCN(C5COC5)CC4)cc3c2C(C)C)cc2cnnn12` [Example 744, 5-(3-isopropyl-5-(1-(oxetan-3-yl)piperidin-4-yl)-1H-indol-2-yl)-7-methyl-[1,2,3]triazolo[1,5-a]pyridine], the half-inhibitory concentration (IC50) at human TLR9 was 1 to 50 µM; at human TLR7, < 0.1 µM; against human TLR8, < 0.1 µM.
Consider `Cc1cn2cc(-c3[nH]c4ccc(C5CCN(C(=O)CC(C)(C)O)CC5)cc4c3CC(F)F)ccc2n1` [Example 607, 1-(4-(3-(2,2-difluoroethyl)-2-(2-methylimidazo[1,2-a]pyridin-6-yl)-1H-indol-5-yl)piperidin-1-yl)-3-hydroxy-3-methylbutan-1-one], for which the IC50 is > 50 µM against human TLR9, 0.1 to 1 µM at human TLR7 and 1 to 50 µM on human TLR8.
As to `CC(C)c1c(-c2ccc3cnnn3c2)[nH]c2ccc(C3CCN(C(=O)CN(C)C)CC3)cc12` [Example 464, 1-(4-(2-([1,2,3]triazolo[1,5-a]pyridin-6-yl)-3-isopropyl-1H-indol-5-yl)piperidin-1-yl)-2-(dimethylamino)ethan-1-one], the IC50 against human TLR9, at human TLR7 and against human TLR8 was 0.1 to 1 µM throughout.
On to `CNC(=O)CN1CCC(c2ccc3[nH]c(-c4ccc5nc(C)cn5c4)c(CC(F)F)c3c2)CC1` [Example 417, 2-(4-(3-(2,2-difluoroethyl)-2-(2-methylimidazo[1,2-a]pyridin-6-yl)-1H-indol-5-yl)piperidin-1-yl)-N-methylacetamide], for which the IC50 against human TLR9 was 0.1 to 1 µM; against human TLR7, < 0.1 µM.
For `Cc1cn2cc(-c3[nH]c4ccc(C5CCNCC5)cc4c3CC(F)F)ccc2n1` [Example 129, 6-(3-(2,2-difluoroethyl)-5-(piperidin-4-yl)-1H-indol-2-yl)-2-methylimidazo[1,2-a]pyridine] the same measures were 0.1 to 1 µM and < 0.1 µM.

Values taken from patent publication US11739098B2 (BRISTOL-MYERS SQUIBB COMPANY, priority 2017, dated 2023).
